This note sets out measurements from EP1137632B1, “THIOUREA INHIBITORS OF HERPES VIRUSES” (Wyeth, priority 1998, dated 2000).

The subject of assay [1] is HCMV recombinant mutant virus. Kind of assay: microbe, parasite or virus in culture. Type of assay: cell-based, human cytomegalovirus. The following applies: for IC50: Human betaherpesvirus 5, read-out: IC50 (ug/ml) HCMV. From the text: Microtiter plate assay. Ninety-six well plate cultures of human foreskin fibroblasts are infected in the presence of inhibitor compound with a HCMV recombinant mutant virus whose genome contains the prokaryotic beta-glucuronidase gene (Jefferson, R. A., S. M. Burgess, and D. Hirsh. 1986. Beta-glucuronidase from Escherichia coli as a gene fusion marker. Proc. Natl. Acad. Sci. USA 83:8447-8451) whose expression is controlled by a viral promoter. An example of such a virus is RV145 (Jones, T. R., V. P. Muzithras, and Y. Gluzman. 1991. Replacement mutagenesis of the human cytomegalovirus genome: US10 and US11 gene products are nonessential. J. Virol. 65:5860-5872). Since it is under the control of a viral promoter, beta-glucuronidase expression is an indirect indicator of growth and replication of HCMV in this assay. At 96 hours post-infection, the infected cell lysates are prepared (using 50mM sodium phosphate [pH7.0] containing 0.1 % Triton X-100 and 0.1% sarkosyl) and assayed for beta-glucuronidase activity using a substrate for the enzyme which when cleaved yields either a product which can be measured colorimetrically in a spectrophotometer or fluorescently in a microfluorimeter. Examples of such substrates are p-nitrophenyl-beta-D-glucuronide and methylumbelliferylglucuronide, respectively. The presence of an antiviral compound is indicated by the reduced expression of the HCMV genome resident beta-glucuronidase gene, compared to the absence of inhibitor. […] Data from this assay generated using varying amounts of inhibitor compound is also used to estimate the IC50 of an inhibitor compound.

For another assay, the system named is HSV-1. Kind of assay: HSV antiviral (ELISA) assay in Vero cells. Format: cell-based, herpes simplex virus type 1. The following applies: for IC50: read-out: IC50 (ug/ml) HSV. As to the method:
HSV antiviral (ELISA) assay
Vero cells (ATCC #CCL-81) are plated on 96-well tissue culture plates at 3.5x10^4 cells per 100µl tissue culture DMEM (Dulbecco's modified Eagle media) supplemented with 2% fetal bovine serum (FBS) in each well. After overnight incubation @ 37°C (in 5% CO2) and 30 minutes prior to infection with HSV-1 (multiplicity of infection equal to 0.006), cells are either untreated, or treated with test compound (multiple concentrations) or reference standard drug control. After approximately 24 hours post-infection incubation @ 37°C (in 5% CO2), cells are fixed for ELISA assay. The primary antibody is murine anti-HSV glycoprotein D monoclonal primary antibody and the secondary antibody is goat anti-mouse IgG linked to β-galactosidase. Thus the extent of viral replication is determined by assessing β-galactosidase activity by quantifying the generation of the 4-methyl umbelliferone fluorescent cleavage product after addition of the methyl umbelliferyl-β-D-galactoside (Sigma #M1633) substrate on a microfluorimeter (365nm for excitation and 450nm for emission). Antiviral activity (IC50) of the test compound is determined by comparing the flourescence obtained in absence of compound to that obtained in the presence of compound.

The test system of a further assay is VZV strain Ellen. Briefly: VZV antiviral (ELISA) assay in human foreskin fibroblast cells. Type of assay: cell-based, varicella-zoster virus. As to the method:
VZV antiviral (ELISA) assay
For the generation of stock VZV to be used in the assay, VZV strain Ellen (ATCC #VR-1367) is used to infect human foreskin fibroblast (HFF) cells at low multiplicity (less than 0.1) and incubated overnight at 37°C in 5% CO2. After the overnight incubation, the mixture of uninfected and VZV-infected HFF infected cells are then harvested and added to each well of 96-well plates (3.5x10^4 cells in 100 µl DMEM supplemented with 2% FBS) which contain test compound or the reference standard drug control (in 100µl DMEM supplemented with 2% FBS per well). These cells are incubated for three days at 37°C in 5% CO2, then fixed for ELISA assay. The primary antibody is murine anti-VZV glycoprotein II monoclonal antibody (Applied Biosystems, Inc. #13-145-100) and the secondary antibody is goat anti-mouse IgG linked to β-galactosidase. Thus the extent of viral replication is determined by assessing β-galactosidase activity by quantifying the generation of the 4-methyl umbelliferone fluorescent cleavage product after addition of the methyl umbelliferyl-β-D-galactoside (Sigma #M1633) substrate on a microfluorimeter (365nm for excitation and 450nm for emission). Antiviral activity (IC50) of the test compound is determined by comparing the flourescence obtained in absence of compound to that obtained in the presence of compound.

The mark [2] stands for this setting: Human alphaherpesvirus 1, HSV-1 in Vero cells.
Setting [3] is: Human alphaherpesvirus 3; VZV strain Ellen in HFF cells; read-out: IC50 (ug/ml) VZV.
[4] abbreviates: Human alphaherpesvirus 3, Fibroblast; read-out: % inhibition 10 ug/ml VZV.
Setting [5] is: Human alphaherpesvirus 3, HFF, read-out: IC50 (ug/ml) VZV.

In brackets after ≈: the same amount, converted by molar mass. Read-outs that look alike come from different tables or passages of the source. Where only a bound is given, the exact number is not on record here.

With `Cc1cc(NC(=S)NC(C)c2cc3ccccc3o2)ccc1NC(=O)c1ccccc1F` (stereo not shown) [Example 1048, N-{4-[3-(1-Benzofuran-2-yl-ethyl)-thioureido]-2-methyl-phenyl}-2-fluoro-benzamide], the IC50 in assay [1] was 3.4 µg/mL (≈ 7.6 µM); in the assay on HSV-1 (setting [2]) it was more than 10 µg/mL; in the assay with VZV strain Ellen (setting [3]) it was 0.061 µg/mL (≈ 0.136 µM).
As for `COc1cc(OC)c(NC(=S)Nc2ccc(NC(=O)c3ccccc3F)cc2OC)cc1Cl` [Example 389, N-{4-[3-(5-Chloro-2,4-dimethoxy-phenyl)-thioureido]-3-methoxy-phenyl}-2-fluoro-benzamide], the IC50 in assay [1] was 1.5 µg/mL (≈ 3.06 µM); with HSV-1 (setting [2]), 0.04 µg/mL (≈ 0.0816 µM); in the assay on VZV strain Ellen (setting [3]), more than 10 µg/mL. The inhibition at 10 µg/mL with VZV strain Ellen (setting [4]) worked out at 9%.
Consider `Cc1cc(NC(=O)c2cc(F)c(F)cc2F)ccc1NC(=S)NC(C)c1ccc(F)cc1` (stereo not shown) [Example 1029, 2,4,5-Trifluoro-N-(4-{3-[1-(4-fluoro-phenyl)-ethyl]-thioureido}-3-methyl-phenyl)-benzamide], for which the IC50 is more than 10 µg/mL in assay [1], more than 10 µg/mL with HSV-1 (setting [2]) and 0.53 µg/mL (≈ 1.15 µM) in the assay with VZV strain Ellen (setting [3]).
Take “(5H,11H-Benzo[e]pyrrolo[1,2-a][1,4]diazepin-10-yl)-(2-chloro-4-imidazol-1-yl-phenyl)-methanone [Example 322]”: the “IC50 (ug/ml) HCMV” value in assay [1] (HCMV, the table does not say which HCMV assay) worked out at 7 µg/mL. Moreover, in the assay with HSV-1 (HSV-1 in Vero cells), the “IC50 (ug/ml) HSV” value amounted to 4 µg/mL. Further, in the assay on VZV strain Ellen (10 ug/ml), the “% inhibition 10 ug/ml VZV” value stood at 108%. The “IC50 (ug/ml) VZV” value in the assay with VZV strain Ellen (VZV strain Ellen in HFF cells) is 8 µg/mL.
Regarding `O=C(Nc1ccc(NC(=S)NNc2cccc(Cl)c2)cc1)c1ccccc1F` [Example 529, N-[4-({[2-(3-Chloro-phenyl)-hydrazino]-thioxomethyl}-amino)-phenyl]-2-fluoro-benzamide], the IC50 in assay [1] was 8.5 µg/mL (≈ 20.5 µM); in the assay with HSV-1 (setting [2]) it was 1 µg/mL (≈ 2.41 µM); in the assay with VZV strain Ellen (setting [3]), 9 µg/mL (≈ 21.7 µM). Further, in the assay on VZV strain Ellen (setting [4]), the inhibition at 10 µg/mL came to 23%.
For `COc1cc(OC)c(NC(=S)Nc2c(Cl)cc(NC(=O)c3ccccc3F)cc2Cl)cc1Cl` [Example 1026, N-{3,5-Dichloro-4-[3-(5-chloro-2,4-dimethoxy-phenyl)-thioureido]-phenyl}-2-fluoro-benzamide], the IC50 in assay [1] is more than 10 µg/mL; with HSV-1 (setting [2]) it was 0.15 µg/mL (≈ 0.284 µM); in the assay with VZV strain Ellen (setting [3]), more than 10 µg/mL.
In the case of `COc1cc(OC)c(NC(=S)Nc2ccc(NC(=O)c3ccccc3F)cc2C(F)(F)F)cc1Cl` [Example 359, N-{4-[3-(5-Chloro-2,4-dimethoxy-phenyl)-thioureido]-3-trifluoromethyl-phenyl}-2-fluoro-benzamide], the IC50 in assay [1] was more than 10 µg/mL; with HSV-1 (setting [2]) it was 0.6 µg/mL (≈ 1.14 µM); in the assay on VZV strain Ellen (setting [3]), more than 10 µg/mL. Further, the inhibition at 10 µg/mL in the assay on VZV strain Ellen (setting [4]) was 59%.
Turning to `CC(NC(=S)Nc1ccc(NC(=O)c2cc3ccccc3cn2)c(C(F)(F)F)c1)c1ccc(F)cc1` (stereo not shown) [Example 1068, Isoquinoline-3-carboxylic acid (4-{3-[1-(4-fluoro-phenyl)-ethyl]-thioureido}-2-trifluoromethyl-phenyl)-amide], the IC50 is more than 10 µg/mL in assay [1], more than 10 µg/mL in the assay on HSV-1 (setting [2]) and 0.04 µg/mL (≈ 0.078 µM) with VZV strain Ellen (setting [3]).
On to `COc1cc(OC)c(NC(=S)Nc2cc(C)c(NC(=O)c3ccccc3F)cc2Cl)cc1Cl` [Example 327, N-{5-Chloro-4-[3-(5-chloro-2,4-dimethoxy-phenyl)-thioureido]-2-methyl-phenyl}-2-fluoro-benzamide], for which the IC50 (in assay [1]; in the assay on HSV-1 (setting [2]); with VZV strain Ellen (setting [3])) was more than 10 µg/mL in each case. In the assay on VZV strain Ellen (setting [4]), the inhibition at 10 µg/mL was 42%.
For `CC(NC(=S)Nc1ccc(NC(=O)c2ccccc2F)c(OCC#N)c1)c1ccc(C#N)cc1` (stereo not shown) [Example 1063, N-[4-{3-[1-(4-Cyano-phenyl)-ethyl]-thioureido}-2-(2-nitrilo-ethoxy)-phenyl]-2-fluoro-benzamide], the IC50 in assay [1] was 3.6 µg/mL (≈ 7.6 µM); with HSV-1 (setting [2]) it was more than 10 µg/mL; in the assay on VZV strain Ellen (setting [3]), 0.64 µg/mL (≈ 1.35 µM).
Take `CSc1ccc(NC(=S)Nc2ccc(NC(=O)c3ccccc3F)c(C)c2)cc1Cl` [Example 408, N-{4-[3-(3-Chloro-4-methylsulfanyl-phenyl)-thioureido]-2-methyl-phenyl}-2-fluoro-benzamide]: the IC50 in assay [1] was 6 µg/mL (≈ 13 µM); in the assay on HSV-1 (setting [2]) it was 0.2 µg/mL (≈ 0.435 µM); in the assay with VZV strain Ellen (setting [3]), more than 10 µg/mL. The inhibition at 10 µg/mL with VZV strain Ellen (setting [4]) came to 56%.
For the molecule `COc1cc(OC)c(NC(=S)Nc2cc(OC)c(NC(=O)c3ccccc3F)cc2OC)cc1Cl` [Example 260, N-{4-[3-(5-Chloro-2,4-dimethoxy-phenyl)-thioureido]-2,5-dimethoxy-phenyl}-2-fluoro-benzamide], the IC50 in assay [1] was more than 10 µg/mL; in the assay with HSV-1 (Human alphaherpesvirus 1, Vero), more than 10 µg/mL; in the assay on VZV strain Ellen (setting [5]), 7 µg/mL (≈ 13.5 µM). Moreover, the inhibition at 10 µg/mL in the assay on VZV strain Ellen (Human alphaherpesvirus 3, Fibroblast, read-out: % inhibition 10 ug/ml VZV) stood at 18%.
Consider `CC(NC(=S)Nc1ccc(NC(=O)c2ccccc2F)c(OCc2ccccc2)c1)c1ccc(F)cc1` (stereo not shown) [Example 1051, N-(2-Benzyloxy-4-{3-[1-(4-fluoro-phenyl)-ethyl]-thioureido}-phenyl)-2-fluoro-benzamide], for which the IC50 was more than 10 µg/mL in assay [1], more than 10 µg/mL in the assay with HSV-1 (setting [2]) and 0.7 µg/mL (≈ 1.35 µM) in the assay with VZV strain Ellen (setting [3]).
For `Cc1cc(NC(=S)NC(C)c2ccc(C#N)cc2)ccc1NC(=O)c1ccccc1F` (stereo not shown) [Example 1047, N-(4-{3-[1-(4-Cyano-phenyl)-ethyl]-thioureido}-2-methyl-phenyl)-2-fluoro-benzamide], the IC50 is 6.1 µg/mL (≈ 14.1 µM) in assay [1]; more than 10 µg/mL with HSV-1 (Human alphaherpesvirus 1, Vero); 0.63 µg/mL (≈ 1.46 µM) in the assay on VZV strain Ellen (setting [5]).
`Cc1cc(NC(=S)NC(C)c2ccc(F)cc2)ccc1NC(=O)c1cc2ccccc2o1` (stereo not shown) [Example 1073, Benzofuran-2-carboxylic acid (4-{3-[1-(4-fluoro-phenyl)-ethyl]-thioureido}-2-methyl-phenyl)-amide]: the IC50 in assay [1] was determined as 6.3 µg/mL (≈ 14.1 µM); in the assay on HSV-1 (setting [2]) it was 4.6 µg/mL (≈ 10.3 µM); in the assay on VZV strain Ellen (setting [3]) it was 0.47 µg/mL (≈ 1.05 µM).
In the same order, the values of `CC(NC(=S)Nc1ccc(NC(=O)c2nccc3ccccc23)c(C(F)(F)F)c1)c1ccc(F)cc1` (stereo not shown) [Example 1066, Isoquinoline-1-carboxylic acid (4-{3-[1-(4-fluoro-phenyl)-ethyl]-thioureido}-2-trifluoromethyl-phenyl)-amide] are 1.8 µg/mL (≈ 3.51 µM), 1.9 µg/mL (≈ 3.71 µM) and 0.02 µg/mL (≈ 0.039 µM).
The like results for `Cc1cc(NC(=S)NC(C)c2ccc(Br)cc2)ccc1NC(=O)c1ccccc1F` (stereo not shown) [Example 1046, N-(4-{3-[1-(4-Bromo-phenyl)-ethyl]-thioureido}-2-methyl-phenyl)-2-fluoro-benzamide] were, in that order, 2.8 µg/mL (≈ 5.76 µM), 6.3 µg/mL (≈ 13 µM) and 0.057 µg/mL (≈ 0.117 µM).
In the same order, the values of `CC(NC(=S)Nc1ccc(NC(=O)c2ccccc2F)c(C#N)c1)c1ccc(Br)cc1` (stereo not shown) [Example 1041, N-(4-{3-[1-(4-Bromo-phenyl)-ethyl]-thioureido}-2-cyano-phenyl)-2-fluoro-benzamide] are 10.4 µg/mL (≈ 20.9 µM), more than 10 µg/mL and 0.096 µg/mL (≈ 0.193 µM).
